Assay results taken from ChEMBL document CHEMBL1909046, “DrugMatrix in vitro pharmacology data”.

Legend:
[1] = DRUGMATRIX: Sigma2 radioligand binding (ligand: [3H] Ifenprodil); type: cell membranes, Rattus norvegicus, Wistar, Brain, Membrane; details: Not Active = under 50% inhibition at 10 µM
[2] = target: T1, Angiotensin-converting enzyme (Oryctolagus cuniculus, UniProt P12822); type: tissue-based, Lung;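 also: enzymatic inhibition of angiotensin-converting enzyme measured with FAPGG as the substrate; in other assays of this panel Not Active means under 50% inhibition at 10 µM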
T1 sequence (P12822 whole entry): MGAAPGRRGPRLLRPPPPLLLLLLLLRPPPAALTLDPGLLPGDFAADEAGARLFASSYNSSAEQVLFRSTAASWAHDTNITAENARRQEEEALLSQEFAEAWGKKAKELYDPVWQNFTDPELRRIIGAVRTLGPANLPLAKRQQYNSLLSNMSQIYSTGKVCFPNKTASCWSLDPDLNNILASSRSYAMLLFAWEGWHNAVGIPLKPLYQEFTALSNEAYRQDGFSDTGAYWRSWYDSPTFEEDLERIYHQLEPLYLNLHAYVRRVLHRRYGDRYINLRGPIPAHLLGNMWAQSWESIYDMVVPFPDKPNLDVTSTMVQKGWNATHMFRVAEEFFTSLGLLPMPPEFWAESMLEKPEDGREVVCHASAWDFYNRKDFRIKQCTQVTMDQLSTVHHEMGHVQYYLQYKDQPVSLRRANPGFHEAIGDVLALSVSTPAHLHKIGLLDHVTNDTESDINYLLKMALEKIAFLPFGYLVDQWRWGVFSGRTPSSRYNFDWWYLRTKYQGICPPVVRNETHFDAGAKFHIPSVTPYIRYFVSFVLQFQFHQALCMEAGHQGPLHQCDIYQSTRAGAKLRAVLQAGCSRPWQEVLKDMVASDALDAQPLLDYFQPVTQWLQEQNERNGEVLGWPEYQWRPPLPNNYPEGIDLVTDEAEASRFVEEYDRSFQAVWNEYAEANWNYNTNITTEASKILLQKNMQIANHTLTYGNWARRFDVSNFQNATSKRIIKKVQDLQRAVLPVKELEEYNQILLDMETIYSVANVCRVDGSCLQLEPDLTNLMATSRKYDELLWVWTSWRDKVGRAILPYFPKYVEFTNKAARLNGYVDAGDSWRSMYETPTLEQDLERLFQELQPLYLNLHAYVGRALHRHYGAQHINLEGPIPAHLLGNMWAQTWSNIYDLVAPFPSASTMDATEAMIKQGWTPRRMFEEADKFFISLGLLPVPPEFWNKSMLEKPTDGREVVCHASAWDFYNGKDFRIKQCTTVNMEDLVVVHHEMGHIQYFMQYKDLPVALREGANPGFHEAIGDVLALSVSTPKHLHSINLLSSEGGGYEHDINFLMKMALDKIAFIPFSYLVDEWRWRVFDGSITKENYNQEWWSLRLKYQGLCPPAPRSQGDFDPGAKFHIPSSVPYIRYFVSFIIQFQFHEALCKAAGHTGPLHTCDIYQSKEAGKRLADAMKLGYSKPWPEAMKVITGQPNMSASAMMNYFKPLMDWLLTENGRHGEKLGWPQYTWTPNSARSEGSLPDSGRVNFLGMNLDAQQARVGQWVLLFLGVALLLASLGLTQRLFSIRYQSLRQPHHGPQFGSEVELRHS

Calcitonin receptor = target: T2, Calcitonin receptor (Homo sapiens, UniProt P30988); type: cell membranes, Membrane; details: t47d; also: in other assays of this panel Not Active means under 50% inhibition at 10 µM
T2 sequence (P30988 whole entry): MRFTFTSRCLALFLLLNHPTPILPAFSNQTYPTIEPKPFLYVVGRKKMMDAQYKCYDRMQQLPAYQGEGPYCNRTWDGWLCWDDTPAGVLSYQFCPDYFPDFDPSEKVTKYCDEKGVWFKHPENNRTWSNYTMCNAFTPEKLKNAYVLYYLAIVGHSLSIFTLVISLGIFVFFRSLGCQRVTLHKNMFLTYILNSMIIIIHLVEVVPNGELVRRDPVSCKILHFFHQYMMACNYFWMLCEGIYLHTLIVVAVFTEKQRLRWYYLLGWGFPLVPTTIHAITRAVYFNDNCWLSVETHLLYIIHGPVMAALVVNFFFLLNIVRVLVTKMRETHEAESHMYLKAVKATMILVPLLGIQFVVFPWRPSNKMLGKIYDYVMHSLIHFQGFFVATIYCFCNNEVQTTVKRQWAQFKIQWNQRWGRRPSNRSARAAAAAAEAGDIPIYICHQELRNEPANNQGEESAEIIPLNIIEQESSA

[3] = DRUGMATRIX: ATPase, Na+/K+ enzyme inhibition (substrate: ATP); type: tissue-based, Sus scrofa, Heart; details: Not Active = under 50% inhibition at 10 µM
[4] = target: T3, C-X-C chemokine receptor type 1 (Homo sapiens, UniProt P25024); also: in other assays of this panel Not Active means under 50% inhibition at 10 µM
T3 sequence (P25024 whole entry): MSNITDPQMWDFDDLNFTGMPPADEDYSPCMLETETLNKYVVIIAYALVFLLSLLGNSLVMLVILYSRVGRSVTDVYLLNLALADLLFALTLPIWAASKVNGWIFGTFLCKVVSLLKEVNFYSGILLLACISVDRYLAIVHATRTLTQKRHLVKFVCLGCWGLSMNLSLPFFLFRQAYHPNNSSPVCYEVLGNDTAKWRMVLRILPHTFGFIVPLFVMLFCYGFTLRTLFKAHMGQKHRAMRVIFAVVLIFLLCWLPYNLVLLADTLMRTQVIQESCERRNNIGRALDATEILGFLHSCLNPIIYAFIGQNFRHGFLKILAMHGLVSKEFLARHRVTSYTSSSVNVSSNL

[5] = DRUGMATRIX: Purinergic P2X radioligand binding (ligand: [3H] alpha, beta-Methylene-ATP); type: cell membranes, Oryctolagus cuniculus, New Zealand albino, Urinary bladder, Membrane; details: Not Active = under 50% inhibition at 10 µM
Cytochrome P450 2E1 = Cytochrome P450 2E1 (Homo sapiens, UniProt P05181); details: bti-tn-5b1-4; also: in other assays of this panel Not Active means under 50% inhibition at 10 µM
Chain of Cytochrome P450 2E1 (P05181 whole entry): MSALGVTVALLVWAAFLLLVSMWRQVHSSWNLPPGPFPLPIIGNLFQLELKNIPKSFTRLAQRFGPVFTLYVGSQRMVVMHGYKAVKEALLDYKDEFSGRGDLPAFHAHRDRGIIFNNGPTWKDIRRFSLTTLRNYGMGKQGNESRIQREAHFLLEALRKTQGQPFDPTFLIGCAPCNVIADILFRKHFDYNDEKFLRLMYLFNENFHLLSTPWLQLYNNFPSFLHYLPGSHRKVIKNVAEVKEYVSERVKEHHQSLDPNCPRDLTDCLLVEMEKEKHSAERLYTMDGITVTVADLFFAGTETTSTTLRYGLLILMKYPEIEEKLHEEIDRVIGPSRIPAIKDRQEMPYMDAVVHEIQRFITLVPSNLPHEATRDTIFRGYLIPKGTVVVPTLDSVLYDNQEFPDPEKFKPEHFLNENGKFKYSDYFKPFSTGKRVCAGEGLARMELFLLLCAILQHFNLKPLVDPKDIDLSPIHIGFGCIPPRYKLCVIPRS

Mu-type opioid receptor = Mu-type opioid receptor (Homo sapiens, UniProt P35372); assay: DRUGMATRIX: Opiate mu (OP3, MOP) radioligand binding (ligand: [3H] Diprenorphine); type: cell membranes, CHO-K1, Membrane; details: Not Active = under 50% inhibition at 10 µM
Chain of Mu-type opioid receptor (P35372 whole entry): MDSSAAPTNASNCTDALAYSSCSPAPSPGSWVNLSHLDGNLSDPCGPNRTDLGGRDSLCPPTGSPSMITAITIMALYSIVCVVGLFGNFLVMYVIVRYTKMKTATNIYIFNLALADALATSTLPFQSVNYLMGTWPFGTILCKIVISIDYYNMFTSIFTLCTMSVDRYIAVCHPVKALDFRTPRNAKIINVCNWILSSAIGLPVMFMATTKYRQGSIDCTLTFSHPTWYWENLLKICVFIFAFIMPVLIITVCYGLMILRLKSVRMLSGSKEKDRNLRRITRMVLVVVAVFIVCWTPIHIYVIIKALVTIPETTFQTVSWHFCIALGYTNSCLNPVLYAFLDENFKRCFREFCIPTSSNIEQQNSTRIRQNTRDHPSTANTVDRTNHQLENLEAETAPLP

| Compound | IC50 [1] | Ki [1] | IC50 [2] | IC50 (Calcitonin receptor) | IC50 [3] | Ki [3] | IC50 [4] | IC50 [5] | Ki [5] | IC50 (Cytochrome P450 2E1) | Ki (Cytochrome P450 2E1) | IC50 (Mu-type opioid receptor; cho-k1) | IC50 ([1]; read-out: IC50) [µM] | Ki ([1]; read-out: Ki) [µM] | Ki (Mu-type opioid receptor) [µM] | IC50 (Mu-type opioid receptor; read-out: IC50) [µM] | Ki [2] | Ki (Calcitonin receptor) | Ki [4] |
| --- | --- | --- | --- | --- | --- | --- | --- | --- | --- | --- | --- | --- | --- | --- | --- | --- | --- | --- | --- |
| CC(C)(C)NC(=O)[C@@H]1C[C@@H]2CCCC[C@@H]2CN1C[C@@H](O)[C@H](Cc1ccccc1)NC(=O)[C@H](CC(N)=O)NC(=O)c1ccc2ccccc2n1 | Not Active | Not Active | Not Active | Not Active | Not Active | Not Active | Not Active | Not Active | Not Active | Not Active | Not Active |  |  |  |  |  |  |  |  |
| CC(=O)[C@@]1(O)CC[C@H]2[C@@H]3C[C@H](C)C4=CC(=O)CC[C@]4(C)[C@H]3CC[C@@]21C | Not Active | Not Active | Not Active | Not Active | Not Active | Not Active | Not Active | Not Active | Not Active | Not Active | Not Active | Not Active |  |  |  |  |  |  |  |
| N[C@@H](Cc1ccc(N(CCCl)CCCl)cc1)C(=O)O | Not Active | Not Active | Not Active | Not Active | Not Active | Not Active | Not Active | Not Active | Not Active | Not Active | Not Active |  |  |  |  |  |  |  |  |
| CCCCc1oc2ccccc2c1C(=O)c1cc(I)c(OCCN(CC)CC)c(I)c1 [AMIODARONE] |  |  | Not Active | Not Active |  |  | Not Active |  |  | Not Active | Not Active |  |  |  |  |  |  |  |  |
| OCCN(CCO)c1nc(N2CCCCC2)c2nc(N(CCO)CCO)nc(N3CCCCC3)c2n1 [DIPYRIDAMOLE] | Not Active | Not Active | Not Active | Not Active | Not Active | Not Active | Not Active | Not Active | Not Active | Not Active | Not Active | Not Active |  |  |  |  |  |  |  |
| Cc1oncc1C(=O)Nc1ccc(C(F)(F)F)cc1 [LEFLUNOMIDE] | Not Active | Not Active | Not Active | Not Active | Not Active | Not Active | Not Active | Not Active | Not Active | Not Active | Not Active | Not Active |  |  |  |  |  |  |  |
| c1ccc([C@H]2CN3CCSC3=N2)cc1 [LEVAMISOLE] |  |  | Not Active | Not Active | Not Active | Not Active | Not Active | Not Active | Not Active | Not Active | Not Active | Not Active | 4.39 | 2.7 |  |  |  |  |  |
| N[C@@H](Cc1ccc(O)c(O)c1)C(=O)O [LEVODOPA] | Not Active | Not Active | Not Active | Not Active | Not Active | Not Active | Not Active | Not Active | Not Active | Not Active | Not Active | Not Active |  |  |  |  |  |  |  |
| N[C@@H](Cc1cc(I)c(Oc2ccc(O)c(I)c2)c(I)c1)C(=O)O [LIOTHYRONINE] |  |  | Not Active | Not Active |  |  | Not Active |  |  | Not Active | Not Active | Not Active |  |  |  |  |  |  |  |
| O=NN(CCCl)C(=O)NC1CCCCC1 [LOMUSTINE] | Not Active | Not Active | Not Active | Not Active | Not Active | Not Active | Not Active | Not Active | Not Active | Not Active | Not Active | Not Active |  |  |  |  |  |  |  |
| CCOC(=O)N1CCC(=C2c3ccc(Cl)cc3CCc3cccnc32)CC1 [LORATADINE] | Not Active | Not Active | Not Active | Not Active | Not Active | Not Active | Not Active | Not Active | Not Active | Not Active | Not Active | Not Active |  |  |  |  |  |  |  |
| Cn1ccnc1S [METHIMAZOLE] | Not Active | Not Active | Not Active | Not Active | Not Active | Not Active | Not Active | Not Active | Not Active | Not Active | Not Active | Not Active |  |  |  |  |  |  |  |
| CC[C@@H](CO)NC(=O)[C@@H]1C=C2c3cccc4[nH]cc(c34)C[C@H]2N(C)C1 [METHYLERGONOVINE] | Not Active | Not Active | Not Active | Not Active | Not Active | Not Active | Not Active | Not Active | Not Active | Not Active | Not Active |  |  |  |  |  |  |  |  |
| COc1nc(C)nc(Cl)c1NC1=NCCN1 [MOXONIDINE] | Not Active | Not Active | Not Active | Not Active | Not Active | Not Active | Not Active | Not Active | Not Active | Not Active | Not Active | Not Active |  |  |  |  |  |  |  |
| CN1CCN(CCCN2c3ccccc3Sc3ccc(Cl)cc32)CC1 [PROCHLORPERAZINE] |  |  | Not Active | Not Active |  |  | Not Active |  |  | Not Active | Not Active | Not Active |  |  |  |  |  |  |  |
| Nc1nc2ccc(OC(F)(F)F)cc2s1 [RILUZOLE] | Not Active | Not Active | Not Active | Not Active | Not Active | Not Active | Not Active | Not Active | Not Active |  |  | Not Active |  |  |  |  |  |  |  |
| Cc1nc2n(c(=O)c1CCN1CCC(c3noc4cc(F)ccc34)CC1)CCCC2 [RISPERIDONE] |  |  | Not Active | Not Active |  |  | Not Active |  |  | Not Active | Not Active | Not Active |  |  |  |  |  |  |  |
| CC/C(=C(\c1ccccc1)c1ccc(OCCN(C)C)cc1)c1ccccc1 [TAMOXIFEN] |  |  | Not Active | Not Active |  |  | Not Active |  |  | Not Active | Not Active |  |  |  | 7.14 | 17.6 |  |  |  |
| SODIUM NITROPRUSSIDE | Not Active | Not Active | Not Active | Not Active | Not Active | Not Active | Not Active | Not Active | Not Active | Not Active | Not Active |  |  |  |  |  | Not Active | Not Active | Not Active |
